Data published in US11661413B2, “Pyrazole compounds or salts thereof, preparation method therefor, herbicidal composition and use thereof” (priority 2015, dated 2023).

Columns and labels:
Arrowhead = test: weed control effect in transplanted rice field (pot, water application); type: in vivo, Sagittaria trifolia; conditions: 500 g a.i./ha, treated at primary leaf stage, 14 days after treatment, naked eye, weed resistant to pyrazosulfuron-ethyl
Description: (§1) Rice field soil was loaded into a 1/1,000,000 ha pot. The seeds of Echinochloa, Scirpus juncoides, Bidens tripartite and Sagittaria trifolia were sowed and gently covered with soil, then left to stand still in greenhouse in the state of 0.5-1 cm of water storage. The tuber of Sagittaria trifolia was planted in the next day or 2 days later. It was kept at 3-4 cm of water storage thereafter. The weeds were treated by dripping the WP or SC water diluents prepared according to the common preparation method of the compounds of the present invention with pipette homogeneously to achieve specified effective amount when Echinochloa, Scirpus juncoides and Bidens tripartite reached 0.5 leaf stage and Sagittaria trifolia reached the time point of primary leaf stage.
(§2) The fertility condition of Echinochloa, Scirpus juncoides, Bidens tripartite and Sagittaria trifolia 14 days after the treatment of the compound of the invention and the fertility condition of rice 21 days after the treatment of the compound of the invention respectively with the naked eye.
(§3) Note: The seeds of barnyard grass, rushlike bulrush, arrowhead and beggartick are collected from Heilongjing Province of China. Tests indicate that the weeds are resistant to common application rate of pyrazosulfuron-ethyl.

rushlike bulrush = test: as above; type: in vivo, Scirpus juncoides; conditions: 500 g a.i./ha, treated at 0.5 leaf stage, 14 days after treatment, naked eye, weed resistant to pyrazosulfuron-ethyl
Description: as §1, §2, §3

Beggartick = test: as above; type: in vivo, Bidens tripartite; conditions: 500 g a.i./ha, treated at 0.5 leaf stage, 14 days after treatment, naked eye, weed resistant to pyrazosulfuron-ethyl
Description: as §1, §2, §3

Barnyard grass [1] = test: as above; type: in vivo, Echinochloa; conditions: 500 g a.i./ha, treated at 0.5 leaf stage, 14 days after treatment, naked eye, weed resistant to pyrazosulfuron-ethyl
Description: as §1, §2, §3

Barnyard grass [2] = test: weed control effect in post emergence stage, greenhouse pot spray; type: in vivo; conditions: sprayed at 2-3 leaf stage, after 3 weeks
Description: (§4) The activity level standard of harmful plant damage (i.e. growth inhibition rate) is as follows: The above described growth control rate is fresh weight control rate. Monocotyledonous and dicotyledonous weed seeds and main crop seeds (i.e. wheat, corn, rice, soybean, cotton, oilseed, millet and Sorghum) were put into a plastic pot loaded with soil. Then covered with 0.5-2 cm soil, the seeds were allowed to grow in good greenhouse environment. The test plants were treated at 2-3 leaf stage 2-3 weeks after sowing. […] The solution was sprayed to the plants with a sprayer. Then the plants were cultured for 3 weeks in the greenhouse.

Flixweed = test: as above; type: in vivo; conditions: 16 g/mu, sprayed at 2-3 leaf stage, after 3 weeks
Description: as §4

Structure (SMILES) | weed control effect (activity level), Arrowhead (Arrowhead) | weed control effect (activity level), rushlike bulrush (rushlike bulrush) | weed control effect (activity level), Beggartick (Beggartick) | weed control effect (activity level), Barnyard grass (Barnyard grass [1]) | weed control effect (activity level), Barnyard grass (Barnyard grass [2]; 1 g/mu) | weed control effect (activity level), Barnyard grass (Barnyard grass [2]; 2 g/mu) | weed control effect (activity level), Barnyard grass (Barnyard grass [2]; 4 g/mu) | weed control effect (activity level), Barnyard grass (Barnyard grass [2]; 8 g/mu) | weed control effect (activity level), Barnyard grass (Barnyard grass [2]; 16 g/mu) | weed control effect (activity level), Flixweed (Flixweed)
Cc1cc(C)n(Cc2c(S(C)(=O)=O)ccc(C(=O)c3c(C)nn(C)c3OCC(=O)OC(C)(C)C)c2Cl)n1 [Compound 35] | 9 (above 90% growth inhibition rate) | 10 | 10 | 10 | 3 (above 30% growth inhibition rate) | 3 (above 30% growth inhibition rate) | 4 (above 30% growth inhibition rate) | 4 (above 30% growth inhibition rate) | 5 (above 50% growth inhibition rate) | 10
Cc1cc(C)n(Cc2c(S(C)(=O)=O)ccc(C(=O)c3c(C4CC4)nn(C)c3O)c2Cl)n1 [Compound 13] | 9 (above 90% growth inhibition rate) | 9 (above 90% growth inhibition rate) | 9 (above 90% growth inhibition rate) | 10 | 2 (above 20% growth inhibition rate) | 2 (above 20% growth inhibition rate) | 2 (above 20% growth inhibition rate) | 5 (above 50% growth inhibition rate) | 7 (above 70% growth inhibition rate) | 10
Cc1cc(C)n(Cc2c(S(C)(=O)=O)ccc(C(=O)c3c(C)nn(C)c3O)c2Cl)n1 [Compound 4] | 9 (above 90% growth inhibition rate) | 10 | 9 (above 90% growth inhibition rate) | 10 | 3 (above 30% growth inhibition rate) | 4 (above 30% growth inhibition rate) | 5 (above 50% growth inhibition rate) | 5 (above 50% growth inhibition rate) | 7 (above 70% growth inhibition rate) | 10
CCc1nn(C)c(O)c1C(=O)c1ccc(S(C)(=O)=O)c(Cn2cc(Cl)cn2)c1Cl [Compound 5] | 10 | 10 | 10 | 10 | 2 (above 20% growth inhibition rate) | 2 (above 20% growth inhibition rate) | 4 (above 30% growth inhibition rate) | 7 (above 70% growth inhibition rate) | 8 (above 80% growth inhibition rate) | 10
Cc1cnn(Cc2c(S(C)(=O)=O)ccc(C(=O)c3c(C)nn(C)c3O)c2Cl)c1 [Compound 1] | 8 (above 80% growth inhibition rate) | 10 | 9 (above 90% growth inhibition rate) | 10 | 4 (above 30% growth inhibition rate) | 7 (above 70% growth inhibition rate) | 8 (above 80% growth inhibition rate) | 10 | 10 | 10
CCn1ncc(C(=O)c2ccc(S(C)(=O)=O)c(Cn3nc(C)cc3C)c2Cl)c1O [Compound 20] | – | – | – | – | 3 (above 30% growth inhibition rate) | 4 (above 30% growth inhibition rate) | 6 (above 60% growth inhibition rate) | 6 (above 60% growth inhibition rate) | 8 (above 80% growth inhibition rate) | 10
Cn1nc(C2CC2)c(C(=O)c2ccc(S(C)(=O)=O)c(Cn3cc(Cl)cn3)c2Cl)c1O [Compound 11] | – | – | – | – | 2 (above 20% growth inhibition rate) | 4 (above 30% growth inhibition rate) | 4 (above 30% growth inhibition rate) | 6 (above 60% growth inhibition rate) | 7 (above 70% growth inhibition rate) | 10
Cc1nn(C)c(O)c1C(=O)c1ccc(S(C)(=O)=O)c(Cn2nc(C(F)(F)F)cc2C(F)(F)F)c1Cl [Compound 41] | – | – | – | – | 4 (above 30% growth inhibition rate) | 5 (above 50% growth inhibition rate) | 6 (above 60% growth inhibition rate) | 7 (above 70% growth inhibition rate) | 7 (above 70% growth inhibition rate) | 10
CCOc1c(C(=O)c2ccc(S(C)(=O)=O)c(Cn3nc(C)cc3C)c2Cl)c(C)nn1C [Compound 37] | – | – | – | – | 0 | 1 (above 1-10% growth inhibition rate) | 1 (above 1-10% growth inhibition rate) | 2 (above 20% growth inhibition rate) | 2 (above 20% growth inhibition rate) | 2 (above 20% growth inhibition rate)
Cc1ccn(Cc2c(S(C)(=O)=O)ccc(C(=O)c3cnn(C)c3O)c2Cl)n1 [Compound 8] | – | – | – | – | 2 (above 20% growth inhibition rate) | 2 (above 20% growth inhibition rate) | 4 (above 30% growth inhibition rate) | 7 (above 70% growth inhibition rate) | 8 (above 80% growth inhibition rate) | 10
Cc1cnn(Cc2c(S(C)(=O)=O)ccc(C(=O)c3c(C4CC4)nn(C)c3O)c2Cl)c1 [Compound 12] | – | – | – | – | 2 (above 20% growth inhibition rate) | 4 (above 30% growth inhibition rate) | 6 (above 60% growth inhibition rate) | 7 (above 70% growth inhibition rate) | 8 (above 80% growth inhibition rate) | 10
